Read-outs that look alike come from different tables or passages of the source.
Experiments:
HCoV-229E Mpro = HCoV-229E Mpro (Human coronavirus 229E, UniProt P0C6X1); assay: HCoV-229E Mpro enzymatic inhibition assay (fluorescence); assay type: biochemical
HCoV-HKU1 Mpro = HCoV-HKU1 Mpro (Human coronavirus HKU1, UniProt P0C6X2); assay: HCoV-HKU1 Mpro enzymatic inhibition assay (fluorescence); assay type: biochemical
Outline: (§1)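 Fluorescence at 340/490 nm after 60 min substrate cleavage at 30 °C is the read-out. Purified E. coli-expressed protease had been pre-incubated 30 min at room temperature with 10-dose, 3-fold compound series in duplicate.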

MERS Mpro = MERS Mpro (Middle East respiratory syndrome-related coronavirus, UniProt K9N7C7); assay: biochemical; design: species or system MERS-CoV
Sequence of MERS Mpro (K9N7C7 3248-3553 limits assumed): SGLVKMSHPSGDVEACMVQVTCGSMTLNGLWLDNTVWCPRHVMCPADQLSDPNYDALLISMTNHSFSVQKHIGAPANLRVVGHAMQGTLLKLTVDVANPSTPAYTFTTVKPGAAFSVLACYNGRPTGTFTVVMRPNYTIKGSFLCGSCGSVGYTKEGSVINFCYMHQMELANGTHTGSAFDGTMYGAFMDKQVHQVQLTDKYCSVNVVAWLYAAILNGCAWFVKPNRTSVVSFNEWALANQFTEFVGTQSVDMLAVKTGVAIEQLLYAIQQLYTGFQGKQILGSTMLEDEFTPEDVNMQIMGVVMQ

SARS-CoV-2 Mpro = SARS-CoV-2 Mpro (Severe acute respiratory syndrome coronavirus 2, UniProt P0DTD1); assay: SARS-CoV-2 Mpro enzymatic inhibition assay (fluorescence); assay type: biochemical
Outline: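 Recombinant Mpro expressed in E. coli was preincubated 30 min at room temperature with 10-point, 3-fold serially diluted compound in duplicate. Fluorogenic substrate was then added and incubated 60 min at 30° C, and fluorescence read at Ex/Em 340/490 nm. IC50 came from a four-parameter fit of % inhibition.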

HCoV-NL63 Mpro = HCoV-NL63 Mpro (Human coronavirus NL63, UniProt P0C6X5); assay: HCoV-NL63 Mpro enzymatic inhibition assay (fluorescence); assay type: biochemical
Sequence of HCoV-NL63 Mpro (P0C6X5 2940-3242 limits assumed): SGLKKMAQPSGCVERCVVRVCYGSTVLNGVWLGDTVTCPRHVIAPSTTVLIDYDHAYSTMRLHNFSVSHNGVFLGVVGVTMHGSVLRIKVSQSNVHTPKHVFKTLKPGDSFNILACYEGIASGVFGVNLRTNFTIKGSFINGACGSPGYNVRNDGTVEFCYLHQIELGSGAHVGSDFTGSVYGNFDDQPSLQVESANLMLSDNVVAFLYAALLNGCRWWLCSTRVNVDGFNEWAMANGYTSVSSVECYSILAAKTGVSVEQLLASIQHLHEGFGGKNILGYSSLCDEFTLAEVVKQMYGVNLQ
Outline: as §1

SARS-CoV-1 Mpro = SARS-CoV-1 Mpro (Severe acute respiratory syndrome coronavirus, UniProt P0C6X7); assay: biochemical
HCoV-OC43 Mpro = HCoV-OC43 Mpro (Human coronavirus OC43, UniProt P0C6X6); assay: HCoV-OC43 Mpro enzymatic inhibition assay (fluorescence); assay type: biochemical
Sequence of HCoV-OC43 Mpro (P0C6X6 3247-3549 limits assumed): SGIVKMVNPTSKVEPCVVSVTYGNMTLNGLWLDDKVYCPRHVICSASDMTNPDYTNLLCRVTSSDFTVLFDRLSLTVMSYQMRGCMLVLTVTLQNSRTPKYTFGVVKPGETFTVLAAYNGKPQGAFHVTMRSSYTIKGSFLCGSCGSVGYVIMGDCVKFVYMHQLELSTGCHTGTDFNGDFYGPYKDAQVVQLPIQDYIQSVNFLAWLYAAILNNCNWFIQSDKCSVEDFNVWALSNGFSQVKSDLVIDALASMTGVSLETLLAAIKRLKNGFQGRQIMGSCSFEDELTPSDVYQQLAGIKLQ
Outline: as §1

Sequence of HCoV-229E Mpro (P0C6X1 2966-3267 limits assumed): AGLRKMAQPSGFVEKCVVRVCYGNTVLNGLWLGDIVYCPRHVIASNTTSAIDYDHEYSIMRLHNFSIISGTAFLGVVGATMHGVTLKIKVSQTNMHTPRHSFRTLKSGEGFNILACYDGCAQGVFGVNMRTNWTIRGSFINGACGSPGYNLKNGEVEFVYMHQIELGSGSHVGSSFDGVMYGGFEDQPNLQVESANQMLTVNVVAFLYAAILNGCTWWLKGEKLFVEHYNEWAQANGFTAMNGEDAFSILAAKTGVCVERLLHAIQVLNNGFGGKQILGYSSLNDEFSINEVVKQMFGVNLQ
Sequence of HCoV-HKU1 Mpro (P0C6X2 3335-3637 limits assumed): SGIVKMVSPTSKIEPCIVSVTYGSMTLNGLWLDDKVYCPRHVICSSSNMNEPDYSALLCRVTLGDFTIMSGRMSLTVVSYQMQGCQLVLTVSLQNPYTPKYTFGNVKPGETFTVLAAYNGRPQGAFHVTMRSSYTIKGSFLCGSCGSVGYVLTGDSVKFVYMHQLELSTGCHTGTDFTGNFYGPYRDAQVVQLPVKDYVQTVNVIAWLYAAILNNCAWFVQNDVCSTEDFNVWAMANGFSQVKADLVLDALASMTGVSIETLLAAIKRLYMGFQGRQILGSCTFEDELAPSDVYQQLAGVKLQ

O=C[C@H](C[C@@H]1CCNC1=O)NC(=O)[C@@H]1CC2(CC2)CN1C(=O)CC1CCCCC1 [Compound 126, (S)-5-(2-Cyclohexylacetyl)-N—((S)-1-oxo-3-((S)-2-oxopyrrolidin-3-yl)propan-2-yl)-5-azaspiro[2.4]heptane-6-carboxamide]
IC50 (HCoV-229E Mpro): 56.3 nM
IC50 (HCoV-HKU1 Mpro): 38.4 nM
IC50 (MERS Mpro): 358 nM
IC50 (SARS-CoV-2 Mpro): 231 nM
IC50 (HCoV-NL63 Mpro): 97.7 nM
IC50 (SARS-CoV-1 Mpro): 84.5 nM
IC50 (HCoV-OC43 Mpro): 112 nM

O=C1NCC[C@H]1C[C@H](NC(=O)[C@@H]1CC2(CC2)CN1C(=O)c1cc2ccccc2[nH]1)C(=O)c1nc2ccccc2s1 [Compound 127, (S)—N—((S)-1-(benzo[d]thiazol-2-yl)-1-oxo-3-((S)-2-oxopyrrolidin-3-yl)propan-2-yl)-5-(1H-indole-2-carbonyl)-5-azaspiro[2.4]heptane-6-carboxamide]
IC50 (HCoV-229E Mpro): 95.1 nM
IC50 (HCoV-HKU1 Mpro): 372 nM
IC50 (MERS Mpro): 409 nM
IC50 (SARS-CoV-2 Mpro): 261 nM
IC50 (HCoV-NL63 Mpro): 195 nM
IC50 (SARS-CoV-1 Mpro): 600 nM
IC50 (HCoV-OC43 Mpro): 507 nM

CC1(C)[C@@H]2[C@@H](C(=O)N[C@H](C#N)C[C@@H]3CCNC3=O)N(C(=O)c3cc4c(F)ccc(Cl)c4[nH]3)C[C@@H]21 [Compound 128, (1R,2S,5S)-3-(7-Chloro-4-fluoro-1H-indole-2-carbonyl)-N—((S)-1-cyano-2-((S)-2-oxopyrrolidin-3-yl)ethyl)-6,6-dimethyl-3-azabicyclo[3.1.0]hexane-2-carboxamide]
IC50 (HCoV-229E Mpro): 1230 nM
IC50 (HCoV-HKU1 Mpro): 1900 nM
IC50 (MERS Mpro): 5580 nM
IC50 (SARS-CoV-2 Mpro): 318 nM
IC50 (HCoV-NL63 Mpro): 3980 nM
IC50 (SARS-CoV-1 Mpro): 788 nM
IC50 (HCoV-OC43 Mpro): 1990 nM

O=C[C@H](C[C@@H]1CCNC1=O)NC(=O)[C@@H]1C[C@@H]2CCC[C@@H]2N1C(=O)c1cc2ccccc2[nH]1 [Compound 129, (2S,3aS,6aS)-1-(1H-Indole-2-carbonyl)-N—((S)-1-oxo-3-((S)-2-oxopyrrolidin-3-yl)propan-2-yl)octahydrocyclopenta[b]pyrrole-2-carboxamide]
IC50 (HCoV-229E Mpro): 38 nM
IC50 (HCoV-HKU1 Mpro): 76 nM
IC50 (MERS Mpro): 1110 nM
IC50 (SARS-CoV-2 Mpro): 351 nM
IC50 (HCoV-NL63 Mpro): 51 nM
IC50 (SARS-CoV-1 Mpro): 874 nM
IC50 (HCoV-OC43 Mpro): 166 nM

O=C[C@H](C[C@@H]1CCNC1=O)NC(=O)[C@@H]1[C@H]2C[C@H]2CN1C(=O)c1cc2ccccc2[nH]1 [Compound 130, (1S,2S,5R)-3-(1H-Indole-2-carbonyl)-N—((S)-1-oxo-3-((S)-2-oxopyrrolidin-3-yl)propan-2-yl)-3-azabicyclo[3.1.0]hexane-2-carboxamide]
IC50 (HCoV-229E Mpro): 191 nM
IC50 (HCoV-HKU1 Mpro): 87.4 nM
IC50 (MERS Mpro): 838 nM
IC50 (SARS-CoV-2 Mpro): 372 nM
IC50 (HCoV-NL63 Mpro): 130 nM
IC50 (SARS-CoV-1 Mpro): 832 nM
IC50 (HCoV-OC43 Mpro): 398 nM

CC(C)c1ccc(F)c2[nH]c(C(=O)N3C[C@H]4[C@@H]([C@H]3C(=O)N[C@H](C#N)C[C@@H]3CCNC3=O)C4(C)C)cc12 [Compound 131, (1R,2S,5S)—N—((S)-1-Cyano-2-((S)-2-oxopyrrolidin-3-yl)ethyl)-3-(7-fluoro-4-isopropyl-1H-indole-2-carbonyl)-6,6-dimethyl-3-azabicyclo[3.1.0]hexane-2-carboxamide]
IC50 (HCoV-229E Mpro): 690 nM
IC50 (HCoV-HKU1 Mpro): 1140 nM
IC50 (MERS Mpro): 9760 nM
IC50 (SARS-CoV-2 Mpro): 401 nM
IC50 (HCoV-NL63 Mpro): 1590 nM
IC50 (SARS-CoV-1 Mpro): 772 nM
IC50 (HCoV-OC43 Mpro): 1540 nM

CC1(C)[C@@H]2[C@@H](C(=O)N[C@H](C#N)C[C@@H]3CCNC3=O)N(C(=O)c3cc4cccc(Cl)c4[nH]3)C[C@@H]21 [Compound 132, (1R,2S,5S)-3-(7-Chloro-1H-indole-2-carbonyl)-N—((S)-1-cyano-2-((S)-2-oxopyrrolidin-3-yl)ethyl)-6,6-dimethyl-3-azabicyclo[3.1.0]hexane-2-carboxamide]
IC50 (HCoV-229E Mpro): 1210 nM
IC50 (HCoV-HKU1 Mpro): 1910 nM
IC50 (MERS Mpro): 5440 nM
IC50 (SARS-CoV-2 Mpro): 434 nM
IC50 (HCoV-NL63 Mpro): 3970 nM
IC50 (SARS-CoV-1 Mpro): 873 nM
IC50 (HCoV-OC43 Mpro): 3010 nM

CC1(C)[C@@H]2[C@@H](C(=O)N[C@H](C#N)C[C@@H]3CCNC3=O)N(C(=O)C3(c4ccccc4)CC3)C[C@@H]21 [Compound 135, (1R,2S,5S)—N—((S)-1-Cyano-2-((S)-2-oxopyrrolidin-3-yl)ethyl)-6,6-dimethyl-3-(1-phenylcyclopropanecarbonyl)-3-azabicyclo[3.1.0]hexane-2-carboxamide]
IC50 (HCoV-229E Mpro): 3460 nM
IC50 (HCoV-HKU1 Mpro): 766 nM
IC50 (MERS Mpro): 4540 nM
IC50 (SARS-CoV-2 Mpro): 468 nM
IC50 (HCoV-NL63 Mpro): 11800 nM
IC50 (SARS-CoV-1 Mpro): 571 nM
IC50 (HCoV-OC43 Mpro): 1870 nM

CC1(C)[C@@H]2[C@@H](C(=O)N[C@H](C#N)C[C@@H]3CCNC3=O)N(C(=O)C3(c4ccccc4)CCCC3)C[C@@H]21 [Compound 136, (1R,2S,5S)—N—((S)-1-Cyano-2-((S)-2-oxopyrrolidin-3-yl)ethyl)-6,6-dimethyl-3-(1-phenylcyclopentanecarbonyl)-3-azabicyclo[3.1.0]hexane-2-carboxamide]
IC50 (HCoV-229E Mpro): 3050 nM
IC50 (HCoV-HKU1 Mpro): 1630 nM
IC50 (MERS Mpro): 8410 nM
IC50 (SARS-CoV-2 Mpro): 470 nM
IC50 (HCoV-NL63 Mpro): 13900 nM
IC50 (SARS-CoV-1 Mpro): 767 nM
IC50 (HCoV-OC43 Mpro): 3980 nM

O=C[C@H](C[C@@H]1CCNC1=O)NC(=O)[C@@H]1C[C@@H](Cc2cccc(Cl)c2)CN1C(=O)c1cc2ccccc2[nH]1 [Compound 137, (2S,4R)-4-(3-Chlorobenzyl)-1-(1H-indole-2-carbonyl)-N—((S)-1-oxo-3-((S)-2-oxopyrrolidin-3-yl)propan-2-yl)pyrrolidine-2-carboxamide]
IC50 (HCoV-229E Mpro): 1260 nM
IC50 (HCoV-HKU1 Mpro): 262 nM
IC50 (MERS Mpro): 36300 nM
IC50 (SARS-CoV-2 Mpro): 478 nM
IC50 (HCoV-NL63 Mpro): 6560 nM
IC50 (SARS-CoV-1 Mpro): 1520 nM
IC50 (HCoV-OC43 Mpro): 1420 nM

O=C[C@H](C[C@@H]1CCNC1=O)NC(=O)[C@@H]1CCCN1C(=O)c1cc2ccccc2[nH]1 [Compound 138]
IC50 (HCoV-229E Mpro): 208 nM
IC50 (HCoV-HKU1 Mpro): 227 nM
IC50 (MERS Mpro): 1730 nM
IC50 (SARS-CoV-2 Mpro; mean, 25 nM protein, 25 μM substrate, 30 min pre-incubation, 60 min at 30° C., read-out: Mpro_SARS-CoV-2 mean IC50): 499 nM
IC50 (HCoV-NL63 Mpro): 417 nM
IC50 (SARS-CoV-1 Mpro): 691 nM
IC50 (HCoV-OC43 Mpro): 317 nM

Source: patent US20260355212A1 (priority 2022, published 2026)
